{
  "source": "patent US20170363618A1",
  "about": "“AGE-MODIFIED CELLS AND METHODS FOR MAKING AGE-MODIFIED CELLS” (MEMORIAL SLOAN-KETTERING CANCER CENTER, priority 2015, published 2017)",
  "key": {"[1]": {"system": "young (348) and old (204) fibroblasts", "test": "10-day culture with compounds, cell survival measured by cell number counts", "format": "cell-based", "protocol": "Cell numbers are calculated as a mean of 8 wells.\nControl cultures of young cells were still healthy after 10 days, and the compounds all had effects on viability (FIG. 15)."}, "[2]": {"system": "young (348) and old (204) fibroblasts", "test": "Immunofluorescence detection of aging marker expression in fibroblasts after three-day compound treatment", "format": "cell-based, human", "details": "for shape of youthful marker expression over the three doses (C1-C3): in some cases, highest dose gave lower expression than middle or lower dose", "protocol": "Cell samples were all supplied by Coriell Cell Repositories. The cell line from a young individual (<20 years) was GM03348 (“348”). The cell line from an old individual (>65 years) was GM04204 (“204”).\nCells were cultured in human fibroblast medium made from 95% Gibco's Minimum Essential Medium, 4.5% fetal bovine serum, and 0.5% Penicillin/Streptomycin. Cells were plated on 15 cm plates and passaged every 2-3 days as necessary, and fed every other day. For experimentation, cells were plated in 96 well plates or 6 well plates. Before fixation, cells were treated with a preextraction buffer containing 20 mM Hepes pH 7.9, 0.5% Triton X-100, 50 mM NaCl, and 300 mM sucrose for 7 minutes at 4° C. to reduce the high levels of background seen in initial stainings. Cells were then fixed with 4% paraformaldehyde for 15 minutes at room temperature.\nAfter fixing, cells were incubated in Permeablization Buffer containing 0.3% Triton X-100 and 1% BSA in PBS for 35 minutes at room temperature. Cells were then incubated with primary antibodies to markers (1:1000 in PBS) at 4° C. overnight. Following incubation, cells were washed 3× with PBS, then incubated with secondary antibodies (1:500 in PBS) for 30 minutes at room temperature, protected from light. Following this incubation, cells were washed 1× with PBS, then incubated with DAPI 1:1000 in PBS for 7 minutes at room temperature, protected from light, then washed 2× with PBS. Stainings were imaged using either using the Hamamatsu Olympus IX81 microscope, or the PerkinElmer Operetta High Content Imaging System. The expression level of each marker was determined relative to the untreated control on the same treatment plate (FIGS. 11, 13, 15 and 16), or to the average of the untreated controls across all treatment plates for the same marker (FIGS. 12 and 14).\nImaging of immunofluorescence was done using the PerkinElmer Operetta High Content Imaging System. Each well had several (>15) random spots in each plate imaged, and staining intensity quantification was done using the Operetta Harmony software. Analysis is based on mean intensity levels of each staining within a single well compared to mean intensity levels in other wells.\n(§1) Cells were then treated with each of the six compounds for three days. Each compound had both a young and old untreated control, as well as the three pre-determined concentrations for both young and old cells. In addition, a six-well plate was set up for Decitabine, Zebularine, Chaetocin and SW155246, with an additional 3 cm plate for use as untreated controls for quantification of global levels of DNA methylation. After treatment, cells were stained with immunofluorescence for HP1α, H1, γH2Ax, Lamin B1, H3K9me3 and […]."}, "[3]": {"system": "global DNA levels of 5-mC methylation", "test": "Global 5-mC DNA methylation quantification (colorimetric Methylflash kit) in treated fibroblasts", "format": "cell-based, human", "details": "3 days of treatment, young and old fibroblasts, three concentrations", "protocol": "Genomic DNA was extracted from treated cell samples using the Quick-gDNA MicroPrep kit (Zymo). Global levels of DNA methylation were measured using the colorimetric Methylflash Methylated DNA quantification kit (Epigentek) according to manufacturer instructions, and read using the PerkinElmer ENSPIRE plate reader. gDNA sample size was 50 ng. Analysis was performed according to manufacturer instructions.\nas §1"}, "motor neurons (MNs)": {"system": "motor neurons (MNs)", "details": "ALS motor neuron screen, 72 hr with compound; cited from earlier work"}, "[4]": {"details": "3-day treatment, primary fibroblasts from young and old individuals, immunofluorescence vs untreated control"}, "[5]": {"details": "3-day treatment, young and old fibroblasts"}},
  "note": "“Also recorded” adds a separate entry of the source. Where two headings read alike, the source gives them in different places.",
  "data": [
    {"smiles": "CN1C(=O)[C@@]23C[C@]4([C@]56C[C@@]78SS[C@@](CO)(C(=O)N7[C@H]5Nc5ccccc56)N(C)C8=O)c5ccccc5N[C@@H]4N2C(=O)[C@]1(CO)SS3", "note": "[Chaetocin, (3S,3'S,5aR,5aR,10bR,10′bR,11aS,11′aS)-2,2′,3,3′,5a,5′a,6,6′-octahydro-3,3′-bis(hydroxymethyl)-2,2′-dimethyl-[10b,10′b(11H,11′H)-bi3,11a-epidithio-11aH-pyrazino[1′,2′:1,5]pyrrolo[2,3-b]indole]-1,1′,4,4′-tetrone]", "values": [
      {"measurement": "toxicity / effect on viability after prolonged culture (cell number)", "setting": "[1]; 10-day culture, young cells (control cultures still healthy)", "result": "highest toxicity"}
    ]},
    {"smiles": "Nc1ncn([C@H]2C[C@H](O)[C@@H](CO)O2)c(=O)n1", "note": "[Decitabine, 5-aza-2-deoxycytidine]", "values": [
      {"measurement": "toxicity / effect on viability after prolonged culture (cell number)", "setting": "[1]", "result": "Much less toxicity"}
    ]},
    {"smiles": "CO[C@H]1C[C@@H]2CC[C@@H](C)[C@@](O)(O2)C(=O)C(=O)N2CCCC[C@H]2C(=O)O[C@H]([C@H](C)C[C@@H]2CC[C@@H](O)[C@H](OC)C2)CC(=O)[C@H](C)/C=C(\\C)[C@@H](O)[C@@H](OC)C(=O)[C@H](C)C[C@H](C)/C=C/C=C/C=C/1C", "note": "[Rapamycin]", "values": [
      {"measurement": "toxicity / effect on viability after prolonged culture (cell number)", "setting": "[1]", "result": "Toxicity was also seen"}
    ]},
    {"smiles": "Oc1ccc(C=Cc2cc(O)cc(O)c2)cc1", "note": "[Resveratrol]", "values": [
      {"measurement": "toxicity / effect on viability after prolonged culture (cell number)", "setting": "[1]", "result": "Toxicity was also seen"},
      {"measurement": "effect on markers in young cells compared to old cells", "setting": "[2]; 3-day culture", "result": "greater in young cells compared to old cells; also recorded: more of an effect on young cells than on old cells"},
      {"measurement": "levels of all markers (H1, HP1α, H3K9me3, H3K27me3, LaminB1, yH2Ax)", "setting": "[2]; 3-day culture, young (348) and old (204) fibroblasts, normalized to untreated, FIG. 11", "result": "increased"},
      {"measurement": "levels of the five markers of a younger state (H1, HP1α, H3K9me3, H3K27me3, LaminB1)", "setting": "[2]; 3-day culture, young and old fibroblasts", "result": "all increased"},
      {"measurement": "levels of HP1α (heterochromatin marker, marker of young cellular age)", "setting": "[2]; [4]", "result": "increasing"},
      {"measurement": "levels of histone protein H1 (marker of young cellular age)", "setting": "[2]; [4]", "result": "increasing"}
    ]},
    {"smiles": "O=[N+]([O-])c1cc(S(=O)(=O)Nc2ccc(O)c3ccccc23)ccc1Cl", "note": "[SW155246, 4-Chloro-N-(4-hydroxy-1-naphthalenyl)-3-nitro-benzenesulfonamide]", "values": [
      {"measurement": "global levels of 5-mC DNA methylation", "setting": "[3]", "result": "increased with both the highest and lowest concentrations, but decreased slightly with the middle concentration; also recorded: did not consistently go down"},
      {"measurement": "toxicity / effect on viability after prolonged culture (cell number)", "setting": "[1]", "result": "Much less toxicity"},
      {"measurement": "shape of youthful marker expression over the three doses (C1-C3)", "setting": "[2]; 3-day treatment", "result": "inverted U shaped curve"},
      {"measurement": "levels of HP1α (heterochromatin marker, marker of young cellular age)", "setting": "[2]; [4]", "result": "decreasing"},
      {"measurement": "levels of histone protein H1 (marker of young cellular age)", "setting": "[2]; [4]", "result": "decreasing"},
      {"measurement": "levels of γH2AX (DNA damage marker, marker of old cellular age)", "setting": "[2]; [4]", "result": "increasing"},
      {"measurement": "expression of the six markers tested", "setting": "[2]; [5]", "result": "modulated"}
    ]},
    {"smiles": "O=c1ncccn1[C@@H]1O[C@H](CO)[C@@H](O)[C@H]1O", "note": "[Zebularine, 1-(β-D-Ribofuranosyl)-2(1H)-pyrimidinone]", "values": [
      {"measurement": "global levels of 5-mC DNA methylation", "setting": "[3]", "result": "decrease"},
      {"measurement": "toxicity / effect on viability after prolonged culture (cell number)", "setting": "[1]", "result": "Much less toxicity"},
      {"measurement": "shape of youthful marker expression over the three doses (C1-C3)", "setting": "[2]; 3-day treatment", "result": "inverted U shaped curve"},
      {"measurement": "expression of the six markers tested", "setting": "[2]; [5]", "result": "modulated"}
    ]},
    {"smiles": "O=C1Cc2c([nH]c3ccc(Br)cc23)-c2ccccc2N1", "note": "[kenpaullone]", "values": [
      {"measurement": "survival of motor neurons after trophic factor withdrawal", "setting": "motor neurons (MNs)", "result": "impressive ability to prolong the healthy survival of MNs"}
    ]}
  ]
}
